The text below walks through data of ChEMBL document CHEMBL3046907, “Microwave-assisted synthesis of pyrido[1,2-a]benzimidazole derivatives of -aryloxyquinoline and their antimicrobial and antituberculosis activities” (2013).

Format in all cases: functional
The test system of experiment [1] is Mycobacterium tuberculosis. The experiment is described as follows: Growth inhibition of Mycobacterium tuberculosis H37Rv at 6.25 ug/ml after 28 days by Lowenstein-Jensen method. The settings on record: 672 h, read-out: GI.
For experiment [2], the system named is Candida albicans. The experiment is described as follows: Antifungal activity against Candida albicans MTCC 227 after overnight incubation by broth microdilution method.
Experiment [3] concerns Aspergillus fumigatus. The experiment can be described thus: Antifungal activity against Aspergillus fumigatus MTCC 3008 after overnight incubation by broth microdilution method. In general terms: In broth dilution the organism is exposed to a series of concentrations in liquid medium.
Experiment [4] deals with Vibrio cholerae. The experiment can be described thus: Antibacterial activity against Vibrio cholerae MTCC 3906 after overnight incubation by broth microdilution method.
Experiment [5] has as its system Salmonella typhi. The experiment is described as follows: Antibacterial activity against Salmonella enterica subsp. enterica serovar Typhi MTCC 98 after overnight incubation by broth microdilution method.
Experiment [6] deals with Escherichia coli. The experiment can be described thus: Antibacterial activity against Escherichia coli MTCC 443 after overnight incubation by broth microdilution method.
Experiment [7] concerns Clostridium tetani. The experiment is described as follows: Antibacterial activity against Clostridium tetani MTCC 449 after overnight incubation by broth microdilution method.
For experiment [8], the system named is Streptococcus pneumoniae. The experiment can be described thus: Antibacterial activity against Streptococcus pneumoniae MTCC 1936 after overnight incubation by broth microdilution method.
Experiment [9] has as its system Bacillus subtilis. The experiment is described as follows: Antibacterial activity against Bacillus subtilis MTCC 441 after overnight incubation by broth microdilution method.

The structures appear in SMILES notation. Values after ≈ are worked out from the molar mass of the structure shown.

One may read the MIC99 as the lowest concentration that inhibits either 99% of growth or 99% of the strains tested, depending on the study. Low readings indicate higher susceptibility, high ones lower susceptibility. As for `COc1ccc(Oc2nc3ccccc3cc2-c2c(C#N)c(N)n3c(nc4cc(C)ccc43)c2C#N)cc1`, the inhibition of growth at 6.25 µg/mL in experiment [1] came out at 64%. In addition, the MIC99 in [2] came out at 200 µg/mL (≈ 403 µM); in experiment [3], 1000 µg/mL (≈ 2010 µM); in experiment [4], 250 µg/mL (≈ 503 µM); in experiment [5], 125 µg/mL (≈ 252 µM); in [6] it was 100 µg/mL (≈ 201 µM); in experiment [7], 200 µg/mL (≈ 403 µM). The MIC99 in [8] and in [9] was 250 µg/mL (≈ 503 µM) in each case.

As for `COc1ccc(Oc2nc3ccc(OC)cc3cc2-c2c(C#N)c(N)n3c(nc4cc(C)ccc43)c2C#N)cc1`, in [1], the inhibition of growth at 6.25 µg/mL was 70%. Also, the MIC99 in experiment [2] was 500 µg/mL (≈ 950 µM); in experiment [3] it was > 1000 µg/mL; in experiment [4], 125 µg/mL (≈ 237 µM); in experiment [5], 250 µg/mL (≈ 475 µM); in experiment [6] it was 200 µg/mL (≈ 380 µM); in experiment [7] it was 200 µg/mL (≈ 380 µM). Further, the MIC99 in experiment [8] came out at 200 µg/mL (≈ 380 µM); in [9], 100 µg/mL (≈ 190 µM).

For `N#Cc1c(-c2cc3ccccc3nc2Oc2ccc(F)cc2)c(C#N)c2nc3ccccc3n2c1N`, the inhibition of growth at 6.25 µg/mL in experiment [1] was 75%. In addition, the MIC99 was found to be 500 µg/mL (≈ 1060 µM) in experiment [2]; 500 µg/mL (≈ 1060 µM) in experiment [3]; 250 µg/mL (≈ 531 µM) in experiment [4]; 250 µg/mL (≈ 531 µM) in [5]; 200 µg/mL (≈ 425 µM) in [6]; 200 µg/mL (≈ 425 µM) in experiment [7]. Also, the MIC99 amounted to 125 µg/mL (≈ 266 µM) in [8] and 250 µg/mL (≈ 531 µM) in experiment [9].

In the case of `Cc1ccc(Oc2nc3ccc(C)cc3cc2-c2c(C#N)c(N)n3c(nc4cc(C)ccc43)c2C#N)cc1`, in experiment [1], the inhibition of growth at 6.25 µg/mL came out at 58%. Also, the MIC99 came to 500 µg/mL (≈ 1010 µM) in experiment [2]; 500 µg/mL (≈ 1010 µM) in experiment [3]; 125 µg/mL (≈ 253 µM) in [4]; 250 µg/mL (≈ 506 µM) in experiment [5]; 200 µg/mL (≈ 404 µM) in [6]; 125 µg/mL (≈ 253 µM) in experiment [7]. In addition, the MIC99 came to 250 µg/mL (≈ 506 µM) in experiment [8] and 200 µg/mL (≈ 404 µM) in experiment [9].

As for `COc1ccc(Oc2nc3ccc(C)cc3cc2-c2c(C#N)c(N)n3c(nc4ccccc43)c2C#N)cc1`, the inhibition of growth at 6.25 µg/mL in experiment [1] stood at 62%. Besides, the MIC99 in [2] is 1000 µg/mL (≈ 2010 µM); in experiment [3], > 1000 µg/mL; in experiment [4], 200 µg/mL (≈ 403 µM); in experiment [5] it was 200 µg/mL (≈ 403 µM); in [6] it was 250 µg/mL (≈ 503 µM); in experiment [7], 500 µg/mL (≈ 1010 µM). In addition, the figures for the MIC99 in [8] and in experiment [9] were 100 µg/mL (≈ 201 µM) and 125 µg/mL (≈ 252 µM), respectively.

For the molecule `COc1ccc2nc(Oc3ccc(C)cc3)c(-c3c(C#N)c(N)n4c(nc5cc(C)ccc54)c3C#N)cc2c1`, the inhibition of growth at 6.25 µg/mL in experiment [1] turned out to be 10%. Besides, the MIC99 in [2] was 1000 µg/mL (≈ 1960 µM); in experiment [3], > 1000 µg/mL; in experiment [4], 125 µg/mL (≈ 245 µM); in experiment [5] it was 100 µg/mL (≈ 196 µM); in [6], 200 µg/mL (≈ 392 µM); in experiment [7] it was 200 µg/mL (≈ 392 µM). Also, the MIC99 turned out to be 100 µg/mL (≈ 196 µM) in experiment [8] and 125 µg/mL (≈ 245 µM) in [9].

Take `Cc1ccc2nc(Oc3ccccc3)c(-c3c(C#N)c(N)n4c(nc5ccccc54)c3C#N)cc2c1`: the inhibition of growth at 6.25 µg/mL in experiment [1] was found to be 19%. In addition, the MIC99 in experiment [2] amounted to 250 µg/mL (≈ 536 µM); in [3], 1000 µg/mL (≈ 2140 µM); in experiment [4], 200 µg/mL (≈ 429 µM); in [5] it was 100 µg/mL (≈ 214 µM); in experiment [6], 62.5 µg/mL (≈ 134 µM); in experiment [7], 250 µg/mL (≈ 536 µM). Also, the MIC99 in [8] and in experiment [9] was 200 µg/mL (≈ 429 µM) each time.

As to `COc1ccc2nc(Oc3ccc(C)cc3)c(-c3c(C#N)c(N)n4c(nc5ccccc54)c3C#N)cc2c1`, the inhibition of growth at 6.25 µg/mL in experiment [1] amounted to 58%. Besides, the MIC99 is 500 µg/mL (≈ 1010 µM) in [2]; > 1000 µg/mL in experiment [3]; 250 µg/mL (≈ 503 µM) in [4]; 250 µg/mL (≈ 503 µM) in [5]; 125 µg/mL (≈ 252 µM) in experiment [6]; 125 µg/mL (≈ 252 µM) in experiment [7]. For the same molecule, the MIC99 in experiment [8] was found to be 500 µg/mL (≈ 1010 µM); in experiment [9], 200 µg/mL (≈ 403 µM).

For `Cc1ccc2nc(Oc3ccccc3)c(-c3c(C#N)c(N)n4c(nc5cc(C)ccc54)c3C#N)cc2c1`, the inhibition of growth at 6.25 µg/mL in experiment [1] came to 71%. The MIC99 in [2] was 500 µg/mL (≈ 1040 µM); in experiment [3], > 1000 µg/mL; in experiment [4], 200 µg/mL (≈ 416 µM); in [5], 250 µg/mL (≈ 520 µM); in experiment [6], 250 µg/mL (≈ 520 µM); in [7] it was 250 µg/mL (≈ 520 µM). Also, the MIC99 in [8] came out at 100 µg/mL (≈ 208 µM); in [9], 500 µg/mL (≈ 1040 µM).

As to `COC1=CC(=O)C[C@@H](C)[C@]12Oc1c(Cl)c(OC)cc(OC)c1C2=O` [GRISEOFULVIN], the values for the MIC99 in experiment [2] and in experiment [3] were 500 µg/mL (≈ 1420 µM) and 100 µg/mL (≈ 283 µM), respectively.

Consider `COc1ccc2nc(Oc3ccc(F)cc3)c(-c3c(C#N)c(N)n4c(nc5ccccc54)c3C#N)cc2c1`, for which the inhibition of growth at 6.25 µg/mL in experiment [1] came out at 86%. In addition, the MIC99 in experiment [2] is > 1000 µg/mL; in experiment [3], 500 µg/mL (≈ 999 µM); in [4] it was 200 µg/mL (≈ 400 µM); in experiment [5], 500 µg/mL (≈ 999 µM); in experiment [6], 200 µg/mL (≈ 400 µM); in experiment [7], 200 µg/mL (≈ 400 µM). For the same molecule, the values for the MIC99 in experiment [8] and in experiment [9] were 500 µg/mL (≈ 999 µM) and 200 µg/mL (≈ 400 µM), respectively.

As for `O=C(O)c1cn(C2CC2)c2cc(N3CCNCC3)c(F)cc2c1=O` [CIPROFLOXACIN], the MIC99 in experiment [4] turned out to be 25 µg/mL (≈ 75.4 µM); in [5], 25 µg/mL (≈ 75.4 µM); in experiment [6], 25 µg/mL (≈ 75.4 µM); in experiment [8], 50 µg/mL (≈ 151 µM); in [9], 50 µg/mL (≈ 151 µM).
